Molecules are shown by their SMILES. Several values for one entry are separate records, joined by “and”; a condition that tells them apart may be missing. Identical values can stand only once. Starred links: 1 amine or outer side, 2 acyl side, 3 side chain; linkers in the order of their positions; H or OH if unused. Positions of bridges follow the written chain, without caps; N, C: chain ends. Non-standard residues stand in square brackets, D forms with d. Residues, ends and D or L forms follow the SMILES beside them. *: point of attachment. pNA = O=[N+]([O-])c1ccc(N*)cc1; Nle = CCCC[CH](N)C(=O)O; CO = O=C([*:1])[*:2] Bounds are passed on as bounds.

The record followed here is BindingDB's records for doi:10.1073/pnas.250483897 (University of Berne, 2000).

Test [1] deals with Somatostatin receptor type 4 (Homo sapiens, UniProt P31391). Conditions: IC50 (nM).
Test [2] deals with Somatostatin receptor type 3 (Homo sapiens, UniProt P32745).
Test [3] has as its target Somatostatin receptor type 5 (Homo sapiens, UniProt P35346).

Somatostatin receptor type 4, sequence (P31391 whole entry): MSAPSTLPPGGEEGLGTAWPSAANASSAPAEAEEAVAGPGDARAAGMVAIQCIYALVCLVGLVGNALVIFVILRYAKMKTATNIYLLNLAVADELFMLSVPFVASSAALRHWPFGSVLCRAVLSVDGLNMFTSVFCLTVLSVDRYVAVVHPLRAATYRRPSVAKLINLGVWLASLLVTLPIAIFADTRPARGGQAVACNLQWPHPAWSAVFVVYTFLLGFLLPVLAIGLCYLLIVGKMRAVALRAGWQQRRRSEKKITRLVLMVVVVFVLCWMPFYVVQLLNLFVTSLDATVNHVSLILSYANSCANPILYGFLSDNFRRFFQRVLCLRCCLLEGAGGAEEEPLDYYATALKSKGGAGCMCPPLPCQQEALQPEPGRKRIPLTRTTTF
Somatostatin receptor type 3, sequence (P32745 whole entry): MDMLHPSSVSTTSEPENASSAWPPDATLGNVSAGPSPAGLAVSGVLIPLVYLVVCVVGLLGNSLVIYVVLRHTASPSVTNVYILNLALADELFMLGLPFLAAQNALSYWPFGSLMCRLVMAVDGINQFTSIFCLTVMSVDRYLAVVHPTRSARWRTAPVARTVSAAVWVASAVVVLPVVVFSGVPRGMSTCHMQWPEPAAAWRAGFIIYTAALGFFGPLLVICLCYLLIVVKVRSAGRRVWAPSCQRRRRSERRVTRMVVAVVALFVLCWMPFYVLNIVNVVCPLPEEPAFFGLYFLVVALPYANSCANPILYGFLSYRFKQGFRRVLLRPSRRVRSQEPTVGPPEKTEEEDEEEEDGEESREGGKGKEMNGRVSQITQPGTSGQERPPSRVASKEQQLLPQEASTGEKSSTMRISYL
Somatostatin receptor type 5, sequence (P35346 whole entry): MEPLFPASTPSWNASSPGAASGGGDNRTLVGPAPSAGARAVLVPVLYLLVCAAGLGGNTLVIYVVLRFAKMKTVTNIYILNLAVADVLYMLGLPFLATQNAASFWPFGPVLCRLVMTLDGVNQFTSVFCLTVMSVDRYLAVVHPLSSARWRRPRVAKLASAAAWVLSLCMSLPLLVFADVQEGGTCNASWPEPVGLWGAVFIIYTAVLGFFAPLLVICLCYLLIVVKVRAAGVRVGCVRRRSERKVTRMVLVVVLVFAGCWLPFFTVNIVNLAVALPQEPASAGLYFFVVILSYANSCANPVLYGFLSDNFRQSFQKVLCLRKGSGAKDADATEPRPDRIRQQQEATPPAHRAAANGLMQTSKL

One may read the IC50 as the midpoint of a concentration-inhibition curve. High values mean lower potency, low ones higher potency. Regarding `CCCCC(NC(=O)NC(Cc1ccccc1)C(=O)Nc1ccc([N+](=O)[O-])cc1)C(=O)NC(CCCCN)C(=O)OC` (stereo unspecified) [CAS_5311373] ({pNA-Phe-CO}-[Nle]-Lys-OMe; configuration not given here), the concentration for half-maximal inhibition (IC50) in test [1] was greater than 10000 nM; in test [2], 0.127 µM; in test [3], greater than 10 µM.
Consider `C[C@@H](O)[C@@H]1NC(=O)[C@H](CCCCN)NC(=O)[C@@H](N(C)C(=O)c2ccc3ccccc3c2)NC(=O)[C@H](Cc2ccc(O)cc2)NC(=O)[C@H](Cc2ccccc2)NC(=O)[C@H](NC(N)=O)CSSC[C@@H](C(=O)O)NC(=O)[C@H](Cc2ccccc2)NC1=O` [Carbamoyl-des-AA 1,2,4,5,12,13[D-Cys3,Tyr7, D-Agl8(Me,2-naphthoyl)]-SS(sst3-ODN-8)], for which the IC50 in test [1] was greater than 10000 nM; in test [2] it was 0.0067 µM; in test [3] it was greater than 10 µM.
The corresponding values for `CSCC[C@H](NC(=O)[C@H](CCCN=C(N)N)NC(=O)[C@@H](N)CC(=O)O)C(=O)N1CCC[C@H]1C(=O)N[C@H]1CSSC[C@@H](C(=O)N[C@@H](CCCCN)C(=O)O)NC(=O)[C@H](CO)NC(=O)[C@H](CO)NC(=O)[C@H](Cc2ccccc2)NC(=O)[C@H]([C@@H](C)O)NC(=O)[C@H](CCCCN)NC(=O)[C@H](Cc2c[nH]c3ccccc23)NC(=O)[C@H](Cc2ccccc2)NC(=O)[C@H](Cc2ccccc2)NC(=O)[C@H](CC(N)=O)NC(=O)[C@H](CCCN=C(N)N)NC1=O` [Cortistatin] are 2.5 nM, 0.0068 µM and 0.013 µM.
`C[C@@H](O)[C@@H]1NC(=O)[C@H](CCCCN)NC(=O)[C@@H](Cc2c[nH]c3ccccc23)NC(=O)[C@H](Cc2ccccc2)NC(=O)[C@H](Cc2ccccc2)NC(=O)[C@@H](N)CSSC[C@@H](C(=O)O)NC(=O)[C@H](Cc2ccccc2)NC1=O` [H-c(Cys3-Phe6-Phe7-DTrp8-Lys9-Thr10-Phe11-Cys14)-OH] (H-CFF[dW]KTFC-OH; disulfide 1-8): the half-maximal inhibitory concentration (IC50) came to 1.3 nM in test [1], 0.013 µM in test [2] and 0.045 µM in test [3].
`C[C@@H](O)[C@@H]1NC(=O)[C@H](CCCCN)NC(=O)[C@@H](NC(=O)c2ccc3ccccc3c2)NC(=O)[C@H](Cc2ccccc2)NC(=O)[C@H](Cc2ccccc2)NC(=O)[C@@H](N)CSSC[C@@H](C(=O)O)NC(=O)[C@H](Cc2ccccc2)NC1=O` [des-AA 1,2,4,5,12,13[D-2Nal8]-SS (ODN-8)]: in test [1], the IC50 came to 165 nM.
As for `C[C@@H](O)[C@@H]1NC(=O)[C@H](CCCCN)NC(=O)[C@@H](N(C)C(=O)c2ccc3ccccc3c2)NC(=O)[C@H](Cc2ccccc2)NC(=O)[C@H](Cc2ccccc2)NC(=O)[C@H](N)CSSC[C@@H](C(=O)O)NC(=O)[C@H](Cc2ccccc2)NC1=O` [des-AA 1,2,4,5,12,13[D-Cys3, D-Agl8(Me,2-naphthoyl)]-SS], the results for the IC50 in test [1] and in test [2] were greater than 10000 nM and 0.115 µM, respectively.
`C[C@@H](O)[C@@H]1NC(=O)[C@H](CCCCN)NC(=O)[C@@H](N(C)C(=O)c2ccc3ccccc3c2)NC(=O)[C@H](Cc2ccc(O)cc2)NC(=O)[C@H](Cc2ccccc2)NC(=O)[C@H](N)CSSC[C@@H](C(=O)O)NC(=O)[C@H](Cc2ccccc2)NC1=O` [des-AA 1,2,4,5,12,13[D-Cys3,Tyr7, D-Agl8(Me,2-naphthoyl)]-SS]: the IC50 is > 10000 nM and 1000 nM in test [1]; 0.039 µM in test [2]; greater than 10 µM in test [3].
Take `C[C@@H](O)[C@@H]1NC(=O)[C@H](CCCCN)NC(=O)[C@@H](N(C)C(=O)c2ccc3ccccc3c2)NC(=O)[C@H](Cc2ccccc2)NC(=O)[C@H](Cc2ccccc2)NC(=O)[C@@H](N)CSSC[C@@H](C(=O)O)NC(=O)[C@H](Cc2ccccc2)NC1=O` [des-AA 1,2,4,5,12,13[DAgl8(Me,2-naphthoyl)]-SS]: the half-maximal inhibitory concentration (IC50) in test [1] is greater than 10000 nM; in test [2], 0.07 µM; in test [3], greater than 10 µM.
